From article PMC5540273, “Progress towards a public chemogenomic set for protein kinases and a call for contributions” (PLoS ONE, 2017)

Target: T1, EPHB1 (Homo sapiens, UniProt P54762)
T1 sequence (P54762 18-984): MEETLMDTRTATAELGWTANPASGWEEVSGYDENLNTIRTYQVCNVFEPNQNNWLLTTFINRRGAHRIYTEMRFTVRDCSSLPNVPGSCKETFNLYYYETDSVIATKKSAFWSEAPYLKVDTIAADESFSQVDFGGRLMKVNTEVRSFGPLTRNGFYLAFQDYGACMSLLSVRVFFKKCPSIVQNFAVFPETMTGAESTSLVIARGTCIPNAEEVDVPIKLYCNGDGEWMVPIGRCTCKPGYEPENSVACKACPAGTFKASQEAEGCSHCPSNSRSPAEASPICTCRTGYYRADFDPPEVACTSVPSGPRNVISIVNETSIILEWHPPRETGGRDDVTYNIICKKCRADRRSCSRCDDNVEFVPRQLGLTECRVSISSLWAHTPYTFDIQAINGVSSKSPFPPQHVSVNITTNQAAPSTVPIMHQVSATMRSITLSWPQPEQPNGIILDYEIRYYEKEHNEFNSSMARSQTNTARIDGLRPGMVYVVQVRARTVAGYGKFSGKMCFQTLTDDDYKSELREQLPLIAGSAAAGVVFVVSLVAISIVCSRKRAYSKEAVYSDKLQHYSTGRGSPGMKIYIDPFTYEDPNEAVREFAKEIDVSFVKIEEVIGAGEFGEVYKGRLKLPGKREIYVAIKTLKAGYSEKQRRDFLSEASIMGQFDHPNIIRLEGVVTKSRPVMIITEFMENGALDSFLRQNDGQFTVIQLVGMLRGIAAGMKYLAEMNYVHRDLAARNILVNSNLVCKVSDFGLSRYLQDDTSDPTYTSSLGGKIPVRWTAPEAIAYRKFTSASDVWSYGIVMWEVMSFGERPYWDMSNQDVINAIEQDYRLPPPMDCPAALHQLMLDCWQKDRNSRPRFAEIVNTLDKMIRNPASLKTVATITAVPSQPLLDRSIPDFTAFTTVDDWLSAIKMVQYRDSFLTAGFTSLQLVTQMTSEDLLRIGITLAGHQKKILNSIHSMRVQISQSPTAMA
Assay: KINOMEscan competition binding
Settings: read-out: %Inh EPHB1

In order of falling inhibition at 1 µM:
1. COc1cccc(OC)c1C(=O)Nc1cccc(-c2nn3ccccc3c2-c2ccnc(Nc3cccc(F)c3)n2)c1 [UNC10225310A]  100%
2. Cn1cc(-c2cnc(N)c3c(-c4ccc5c(c4)CCN5C(=O)Cc4ccccc4)csc23)cn1 [UNC10225012A]  6%
3. Cc1ccc(NC(=O)Nc2cccc(C(F)(F)F)c2)cc1 [UNC10225187A]  5%
4. CS(=O)(=O)Cc1ccc(Nc2nccc(-c3c(-c4cccc(NC(=O)C5CCCCC5)c4)nn4ncccc34)n2)cc1 [UNC10225159A]  2%
5. O=c1cc(N2CCOCC2)nc2n(Cc3cccc(Cl)c3Cl)c(C3CC3)nn12 [UNC10225469A]  0%

Target: T2, CASK (Homo sapiens, UniProt O14936)
T2 sequence (O14936 1-926): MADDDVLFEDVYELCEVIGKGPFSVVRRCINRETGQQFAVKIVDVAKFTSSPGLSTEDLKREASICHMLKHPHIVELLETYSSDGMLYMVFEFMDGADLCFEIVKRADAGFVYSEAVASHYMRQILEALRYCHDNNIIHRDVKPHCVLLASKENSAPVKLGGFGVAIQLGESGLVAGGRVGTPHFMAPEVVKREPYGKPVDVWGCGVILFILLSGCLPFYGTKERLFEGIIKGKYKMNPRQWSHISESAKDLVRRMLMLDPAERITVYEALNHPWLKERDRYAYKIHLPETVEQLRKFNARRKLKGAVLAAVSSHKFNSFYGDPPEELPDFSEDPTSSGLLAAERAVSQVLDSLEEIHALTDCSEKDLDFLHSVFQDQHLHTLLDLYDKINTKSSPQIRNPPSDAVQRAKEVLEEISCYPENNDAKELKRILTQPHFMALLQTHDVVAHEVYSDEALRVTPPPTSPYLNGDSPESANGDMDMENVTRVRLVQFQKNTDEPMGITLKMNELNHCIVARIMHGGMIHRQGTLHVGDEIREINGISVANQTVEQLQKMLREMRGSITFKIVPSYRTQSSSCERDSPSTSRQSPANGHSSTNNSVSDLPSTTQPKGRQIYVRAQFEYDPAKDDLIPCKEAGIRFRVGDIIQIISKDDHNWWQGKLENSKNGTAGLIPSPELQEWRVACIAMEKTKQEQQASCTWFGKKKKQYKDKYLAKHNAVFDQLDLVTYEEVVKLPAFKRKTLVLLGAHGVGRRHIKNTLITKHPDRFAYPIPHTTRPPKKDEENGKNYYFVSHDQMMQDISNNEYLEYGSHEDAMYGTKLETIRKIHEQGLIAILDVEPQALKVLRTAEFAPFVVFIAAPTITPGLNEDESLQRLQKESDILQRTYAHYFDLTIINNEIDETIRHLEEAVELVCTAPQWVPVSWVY
Assay: KINOMEscan competition binding
Settings: read-out: %Inh CASK

In order of rising inhibition at 1 µM:
1. COc1cccc(OC)c1C(=O)Nc1cccc(-c2nn3ccccc3c2-c2ccnc(Nc3cccc(F)c3)n2)c1 [UNC10225310A]  15%
2. Cc1ccc(NC(=O)Nc2cccc(C(F)(F)F)c2)cc1 [UNC10225187A]  15%
3. Cn1cc(-c2cnc(N)c3c(-c4ccc5c(c4)CCN5C(=O)Cc4ccccc4)csc23)cn1 [UNC10225012A]  23%
4. O=c1cc(N2CCOCC2)nc2n(Cc3cccc(Cl)c3Cl)c(C3CC3)nn12 [UNC10225469A]  26%
5. CS(=O)(=O)Cc1ccc(Nc2nccc(-c3c(-c4cccc(NC(=O)C5CCCCC5)c4)nn4ncccc34)n2)cc1 [UNC10225159A]  34%

Target: CSF1R (Homo sapiens, UniProt P07333)
Sequence (P07333 20-972): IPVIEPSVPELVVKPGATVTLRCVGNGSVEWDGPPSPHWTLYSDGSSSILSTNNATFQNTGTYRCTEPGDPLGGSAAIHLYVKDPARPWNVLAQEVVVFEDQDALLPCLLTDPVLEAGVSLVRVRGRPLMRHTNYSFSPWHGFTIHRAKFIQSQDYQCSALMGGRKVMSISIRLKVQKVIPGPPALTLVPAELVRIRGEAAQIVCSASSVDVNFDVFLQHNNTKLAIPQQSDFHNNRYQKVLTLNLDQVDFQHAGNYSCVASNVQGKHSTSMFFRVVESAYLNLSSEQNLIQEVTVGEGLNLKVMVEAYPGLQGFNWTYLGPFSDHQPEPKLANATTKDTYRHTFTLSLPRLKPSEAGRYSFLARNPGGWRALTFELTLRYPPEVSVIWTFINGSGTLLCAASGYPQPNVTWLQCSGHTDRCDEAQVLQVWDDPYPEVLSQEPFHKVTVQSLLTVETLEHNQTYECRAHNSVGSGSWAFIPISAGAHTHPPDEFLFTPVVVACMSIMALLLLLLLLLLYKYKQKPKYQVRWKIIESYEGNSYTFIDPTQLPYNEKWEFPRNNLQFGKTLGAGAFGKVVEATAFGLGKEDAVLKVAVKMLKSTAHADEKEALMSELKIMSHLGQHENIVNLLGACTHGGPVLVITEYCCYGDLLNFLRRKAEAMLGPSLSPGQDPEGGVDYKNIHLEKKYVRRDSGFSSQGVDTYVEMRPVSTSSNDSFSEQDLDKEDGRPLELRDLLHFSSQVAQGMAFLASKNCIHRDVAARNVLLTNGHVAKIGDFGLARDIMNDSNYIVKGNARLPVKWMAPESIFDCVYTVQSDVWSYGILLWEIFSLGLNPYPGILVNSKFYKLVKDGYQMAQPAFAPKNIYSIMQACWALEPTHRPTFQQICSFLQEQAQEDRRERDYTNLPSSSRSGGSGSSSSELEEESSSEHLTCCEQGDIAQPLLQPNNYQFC
Assay: KINOMEscan competition binding
Settings: read-out: %Inh CSF1R

In order of falling inhibition at 1 µM:
1. Cn1cc(-c2cnc(N)c3c(-c4ccc5c(c4)CCN5C(=O)Cc4ccccc4)csc23)cn1 [UNC10225012A]  99.9%
2. CS(=O)(=O)Cc1ccc(Nc2nccc(-c3c(-c4cccc(NC(=O)C5CCCCC5)c4)nn4ncccc34)n2)cc1 [UNC10225159A]  79%
3. COc1cccc(OC)c1C(=O)Nc1cccc(-c2nn3ccccc3c2-c2ccnc(Nc3cccc(F)c3)n2)c1 [UNC10225310A]  60%
4. O=c1cc(N2CCOCC2)nc2n(Cc3cccc(Cl)c3Cl)c(C3CC3)nn12 [UNC10225469A]  0%
5. Cc1ccc(NC(=O)Nc2cccc(C(F)(F)F)c2)cc1 [UNC10225187A]  0%

Target: BMPR1A (Homo sapiens, UniProt P36894)
Sequence (P36894 24-532): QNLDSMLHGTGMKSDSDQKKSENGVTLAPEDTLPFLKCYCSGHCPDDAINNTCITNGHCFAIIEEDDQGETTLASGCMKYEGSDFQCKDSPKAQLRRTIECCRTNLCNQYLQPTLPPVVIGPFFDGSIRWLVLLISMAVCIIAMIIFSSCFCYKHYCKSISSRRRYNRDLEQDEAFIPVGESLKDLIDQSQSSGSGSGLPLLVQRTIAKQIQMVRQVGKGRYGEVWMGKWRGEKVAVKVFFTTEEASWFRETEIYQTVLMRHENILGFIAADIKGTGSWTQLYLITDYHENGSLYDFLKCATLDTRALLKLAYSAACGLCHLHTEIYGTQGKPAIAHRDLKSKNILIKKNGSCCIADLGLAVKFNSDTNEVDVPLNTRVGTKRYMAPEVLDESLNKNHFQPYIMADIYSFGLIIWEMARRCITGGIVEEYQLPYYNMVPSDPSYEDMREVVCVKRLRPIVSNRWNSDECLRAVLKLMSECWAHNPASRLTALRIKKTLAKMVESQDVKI
Assay: KINOMEscan competition binding
Settings: read-out: %Inh BMPR1A

In order of falling inhibition at 1 µM:
1. Cc1ccc(NC(=O)Nc2cccc(C(F)(F)F)c2)cc1 [UNC10225187A]  94.6%
2. O=c1cc(N2CCOCC2)nc2n(Cc3cccc(Cl)c3Cl)c(C3CC3)nn12 [UNC10225469A]  15%
3. COc1cccc(OC)c1C(=O)Nc1cccc(-c2nn3ccccc3c2-c2ccnc(Nc3cccc(F)c3)n2)c1 [UNC10225310A]  9%
4. Cn1cc(-c2cnc(N)c3c(-c4ccc5c(c4)CCN5C(=O)Cc4ccccc4)csc23)cn1 [UNC10225012A]  1%
5. CS(=O)(=O)Cc1ccc(Nc2nccc(-c3c(-c4cccc(NC(=O)C5CCCCC5)c4)nn4ncccc34)n2)cc1 [UNC10225159A]  0%

Target: T3, IRAK4 (Homo sapiens, UniProt Q9NWZ3)
T3 sequence (Q9NWZ3 1-460): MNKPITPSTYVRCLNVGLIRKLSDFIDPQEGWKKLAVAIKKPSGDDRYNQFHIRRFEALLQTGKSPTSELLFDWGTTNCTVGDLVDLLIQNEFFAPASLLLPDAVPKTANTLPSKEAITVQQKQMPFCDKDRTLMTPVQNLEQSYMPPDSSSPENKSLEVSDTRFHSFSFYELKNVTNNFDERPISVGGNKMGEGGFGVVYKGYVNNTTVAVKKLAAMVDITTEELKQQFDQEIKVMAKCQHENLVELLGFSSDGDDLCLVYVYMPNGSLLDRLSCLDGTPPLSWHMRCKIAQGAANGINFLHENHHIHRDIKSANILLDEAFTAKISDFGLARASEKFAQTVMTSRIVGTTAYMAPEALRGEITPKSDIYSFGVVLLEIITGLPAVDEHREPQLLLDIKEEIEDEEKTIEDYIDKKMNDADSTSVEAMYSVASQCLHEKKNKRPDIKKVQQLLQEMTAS
Assay: KINOMEscan competition binding
Settings: read-out: %Inh IRAK4

In order of falling inhibition at 1 µM:
1. CS(=O)(=O)Cc1ccc(Nc2nccc(-c3c(-c4cccc(NC(=O)C5CCCCC5)c4)nn4ncccc34)n2)cc1 [UNC10225159A]  25%
2. O=c1cc(N2CCOCC2)nc2n(Cc3cccc(Cl)c3Cl)c(C3CC3)nn12 [UNC10225469A]  0%
3. Cn1cc(-c2cnc(N)c3c(-c4ccc5c(c4)CCN5C(=O)Cc4ccccc4)csc23)cn1 [UNC10225012A]  0%
4. COc1cccc(OC)c1C(=O)Nc1cccc(-c2nn3ccccc3c2-c2ccnc(Nc3cccc(F)c3)n2)c1 [UNC10225310A]  0%
5. Cc1ccc(NC(=O)Nc2cccc(C(F)(F)F)c2)cc1 [UNC10225187A]  0%

Target: ERK4 (Homo sapiens, UniProt P31152)
Sequence (P31152 whole entry): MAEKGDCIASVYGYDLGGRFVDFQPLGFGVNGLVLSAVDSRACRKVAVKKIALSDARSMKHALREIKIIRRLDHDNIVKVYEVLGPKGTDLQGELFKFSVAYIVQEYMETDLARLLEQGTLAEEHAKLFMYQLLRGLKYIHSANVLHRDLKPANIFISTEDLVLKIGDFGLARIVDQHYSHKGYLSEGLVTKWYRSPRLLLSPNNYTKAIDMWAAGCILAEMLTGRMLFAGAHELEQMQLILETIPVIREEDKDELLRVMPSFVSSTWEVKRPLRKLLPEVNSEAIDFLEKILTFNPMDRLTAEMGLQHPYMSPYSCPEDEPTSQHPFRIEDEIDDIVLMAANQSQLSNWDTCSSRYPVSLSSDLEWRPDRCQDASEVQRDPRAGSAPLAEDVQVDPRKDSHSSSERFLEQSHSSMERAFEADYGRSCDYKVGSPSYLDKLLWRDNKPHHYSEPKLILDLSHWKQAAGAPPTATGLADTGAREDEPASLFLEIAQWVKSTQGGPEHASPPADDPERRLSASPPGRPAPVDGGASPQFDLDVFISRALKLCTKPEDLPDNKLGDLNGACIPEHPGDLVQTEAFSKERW
Assay: KINOMEscan competition binding
Settings: read-out: %Inh ERK4

In order of rising inhibition at 1 µM:
1. O=c1cc(N2CCOCC2)nc2n(Cc3cccc(Cl)c3Cl)c(C3CC3)nn12 [UNC10225469A]  0%
2. Cn1cc(-c2cnc(N)c3c(-c4ccc5c(c4)CCN5C(=O)Cc4ccccc4)csc23)cn1 [UNC10225012A]  0%
3. Cc1ccc(NC(=O)Nc2cccc(C(F)(F)F)c2)cc1 [UNC10225187A]  0%
4. CS(=O)(=O)Cc1ccc(Nc2nccc(-c3c(-c4cccc(NC(=O)C5CCCCC5)c4)nn4ncccc34)n2)cc1 [UNC10225159A]  3%
5. COc1cccc(OC)c1C(=O)Nc1cccc(-c2nn3ccccc3c2-c2ccnc(Nc3cccc(F)c3)n2)c1 [UNC10225310A]  9%
